“Also recorded” adds a separate entry of the source.
Tests used:
BALB/cJ mice (H-2d) = assay: Immunization in mice followed by cytotoxicity (CTL) analysis, standard 4-h 51Cr release assay; assay type: in vivo
Experimental: FIG. 1. Specific CTL response of BALB/cJ(H-2^d) mice after immunized with 7-mer peptied and gp96-7 mer peptide complex seven days. The lysis percentage of effector cells to specific target cells was measurated in a standard 4-h ^51Cr release assay. The lysis percent rate of the figure is the mean percentage of 10 mice.
BALB/cJ mice (H-2^d) 12-16 weeks old were used in this studies.
Sample was solubilized in 100 μl PBS and was injected subcutaneously in the neck back area of each mouse.
Therefore, we adopted the immunological manner of subcutaneous injection. The 7-mer peptide was dissolved in buffer (90% PBS, 10% DMSO/0.1% TFA) and gp96-7 mer peptide complex was dissolved in PBS buffer and then shaked severely for 1 minute before injection. For each mouse, the immunization dosage of 7-mer peptide was 0.2 nmol, 2 nmol and 20 nmol, respectively, the mice were immunized with peptide and Freund's after emulsion. The immunization dosage of gp96-7 mer peptide complex was 0.01 nmol, 0.05 nmol, 0.10 nmol and 0.50 nmol, respectively, the mice were immunized with subcutaneous injection in neck back area, and the second enhanced immunization was performed after one week from the first immunization, then cytotoxicity analysis was performed after 7 days. Each treatment group consisted of 10 mice. […]

[1] = target: T1, gp96 protein purified from human liver tissues (human, UniProt P14625 22-803); assay: non-covalently bound peptides eluted with TFA from gp96 purified from HBV-infected liver cancer tissues, HPLC peak, MALDI-TOF, microsequencing
T1 construct: Native protein from tissue, over 95% purity; also called purified gp96 protein
T1 sequence (P14625 22-803 limits assumed): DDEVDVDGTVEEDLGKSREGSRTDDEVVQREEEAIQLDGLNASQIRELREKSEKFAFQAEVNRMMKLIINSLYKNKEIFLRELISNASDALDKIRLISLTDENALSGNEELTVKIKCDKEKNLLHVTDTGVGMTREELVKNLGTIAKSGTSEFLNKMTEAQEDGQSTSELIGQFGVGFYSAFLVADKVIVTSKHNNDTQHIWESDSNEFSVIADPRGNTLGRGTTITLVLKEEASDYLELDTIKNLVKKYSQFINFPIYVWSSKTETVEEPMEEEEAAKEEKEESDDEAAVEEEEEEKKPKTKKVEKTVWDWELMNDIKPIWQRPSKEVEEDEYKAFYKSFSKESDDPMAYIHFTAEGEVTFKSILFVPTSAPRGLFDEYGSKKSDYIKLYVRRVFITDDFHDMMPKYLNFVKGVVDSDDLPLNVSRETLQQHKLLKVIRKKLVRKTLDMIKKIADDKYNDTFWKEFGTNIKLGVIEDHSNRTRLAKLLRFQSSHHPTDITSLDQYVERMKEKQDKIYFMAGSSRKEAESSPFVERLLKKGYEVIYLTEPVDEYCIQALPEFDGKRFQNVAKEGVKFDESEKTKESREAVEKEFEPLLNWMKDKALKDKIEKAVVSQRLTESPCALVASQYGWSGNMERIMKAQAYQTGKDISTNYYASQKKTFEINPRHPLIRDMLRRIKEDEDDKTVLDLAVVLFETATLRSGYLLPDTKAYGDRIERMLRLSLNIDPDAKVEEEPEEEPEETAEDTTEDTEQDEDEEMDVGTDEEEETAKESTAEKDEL

| Molecule | effect of adjuvant on immunogenicity (BALB/cJ mice (H-2d); Freund's incomplete adjuvant, Freund's complete adjuvant, chromium alum) | specific cytotoxic T lymphocyte (CTL) response in mice after immunization (BALB/cJ mice (H-2d); subcutaneous immunization, 51Cr release assay) | binding result [1] |
| --- | --- | --- | --- |
| YVNTNMG [7-mer peptide, 7-mer peptide “YVNTNMG or YVNVNMG”, amino acid residues 88-94 of the core protein of HBV] | can improve the immunological activity of it significantly | can elicit the specific CTL response in mice; also recorded: can elicit the specific cytotoxic T lymphocytes in mice | – |
| YVNTNMG (Eluted from tissue gp96 and also synthesized) [7-mer peptide YVNTNMG (HBV core protein 88-94)] | – | – | binds |
| YVNVNMG (Printed as the alternative to YVNTNMG) [7-mer peptide YVNVNMG (HBV core protein 88-94)] | – | – | binds |
